According to ChEMBL document CHEMBL1201862, “PubChem BioAssay data set” (2004):
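Five compound concentrations were applied to cells in 96-well plates for 48 hours; endpoints were derived by simple linear interpolation of the resulting dose-response curve. The concentration for 50% growth inhibition is given as GI50.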 Active and inactive are the calls of the source. Cut-off read from the data, not from the text of the source: active = GI50 up to about 1.1 µM and inactive = higher.

Key:
Test in all cases: DTP human tumour cell line panel, 48 h
A549 = tested on: A549
ACHN = tested on: ACHN
CCRF-CEM = tested on: CCRF-CEM
DLD-1 = tested on: DLD-1
HCT-15 = tested on: HCT-15
HOP-92 = tested on: HOP-92
HT-29 = tested on: HT-29
M19-MEL = tested on: M19-MEL
Malme-3M = tested on: Malme-3M
NCI-H460 = tested on: NCI-H460
NCI-H522 = tested on: NCI-H522
OVCAR-4 = tested on: OVCAR-4
OVCAR-5 = tested on: OVCAR-5
RXF 393 = tested on: RXF 393
SF-268 = tested on: SF-268
SF-295 = tested on: SF-295
SK-MEL-2 = tested on: SK-MEL-2
UACC-257 = tested on: UACC-257
UACC-62 = tested on: UACC-62
K562 = tested on: K562

| SMILES | GI50 (A549) | GI50 (ACHN) | GI50 (CCRF-CEM) | GI50 (DLD-1) | GI50 (HCT-15) [µM] | GI50 (HOP-92) | GI50 (HT-29) | GI50 (M19-MEL) | GI50 (Malme-3M) | GI50 (NCI-H460) | GI50 (NCI-H522) | GI50 (OVCAR-4) | GI50 (OVCAR-5) | GI50 (RXF 393) | GI50 (SF-268) | GI50 (SF-295) | GI50 (SK-MEL-2) | GI50 (UACC-257) | GI50 (UACC-62) | GI50 (K562) |
| --- | --- | --- | --- | --- | --- | --- | --- | --- | --- | --- | --- | --- | --- | --- | --- | --- | --- | --- | --- | --- |
| c1ccc([P+](Cc2csnn2)(c2ccccc2)c2ccccc2)cc1 | > 100 µM (inactive) | > 100 µM (inactive) | > 100 µM (inactive) | > 100 µM (inactive) | > 100 | 80 µM (inactive) | > 100 µM (inactive) | > 100 µM (inactive) | > 100 µM (inactive) | > 100 µM (inactive) | > 100 µM (inactive) | > 100 µM (inactive) | > 100 µM (inactive) | 84.1 µM (inactive) | > 100 µM (inactive) | > 100 µM (inactive) | > 100 µM (inactive) | > 100 µM (inactive) | 57.8 µM (inactive) |  |
| COc1cccc(NC(=O)CC(=O)NN2C(=O)/C(=C/c3ccc(N(CCC#N)CCC#N)cc3)N=C2c2cc([N+](=O)[O-])ccc2Cl)c1 | > 100 µM (inactive) | > 100 µM (inactive) | 0.499 µM (active) | 60.3 µM (inactive) | > 100 | > 100 µM (inactive) |  | > 100 µM (inactive) | 32.7 µM (inactive) |  | 43.9 µM (inactive) | 99.1 µM (inactive) | 25.5 µM (inactive) | > 100 µM (inactive) | > 100 µM (inactive) | 87.1 µM (inactive) | > 100 µM (inactive) |  | 64.7 µM (inactive) | 44.3 µM (inactive) |
| C=C1C2=C(CCCC2)C(=O)OC12CCCCC2 | 49.3 µM (inactive) | 40.9 µM (inactive) | 51.4 µM (inactive) | 92.7 µM (inactive) | 60.1 | 19.5 µM (inactive) | 59.4 µM (inactive) | 46.5 µM (inactive) | 51.3 µM (inactive) | 91.4 µM (inactive) | 35.5 µM (inactive) | 98.2 µM (inactive) | 79.8 µM (inactive) | 56.5 µM (inactive) | 86.1 µM (inactive) | 57.7 µM (inactive) | 70.3 µM (inactive) | 52.1 µM (inactive) | 56.9 µM (inactive) | 45.2 µM (inactive) |
| COc1c(O)c(C=O)c2c(O)c(-c3c(C)cc4c(C(C)C)c(OC)c(O)c(C=O)c4c3O)c(C)cc2c1C(C)C [6,6'-METHOXYGOSSYPOL] | 3.52 µM (inactive) | 2.43 µM (inactive) | 5.16 µM (inactive) | 4.38 µM (inactive) | 3.74 | 2.2 µM (inactive) | 4.13 µM (inactive) | 3.65 µM (inactive) | 5.75 µM (inactive) | 4.72 µM (inactive) | 2.62 µM (inactive) | 3.86 µM (inactive) | 7.08 µM (inactive) | 2.52 µM (inactive) | 5.71 µM (inactive) | 4.19 µM (inactive) | 4.45 µM (inactive) | 10.9 µM (inactive) | 11.9 µM (inactive) | 11.8 µM (inactive) |
